Results as given in patent EP0071175A2, “Phenylalkyloxirane-carboxylic acids, process for their preparation, their use and medicines containing them” (Byk Gulden Lomberg Chemische Fabrik GmbH, priority 1981, dated 1983).

Tests used:
[1] = tested on: nüchterner, stoffwechselgesunder Ratten; test: Blood glucose determination after single oral application; assay type: in vivo, Sprague-Dawley-Ratten; conditions: maximal lowering vs. control group within 6 hours after single oral application of 0,6 mmol substance/kg body weight; fasted male rats
Excerpt: (§1) In Tabelle I werden Untersuchungen des Einflusses von Vertretern der erfindungsgemäßen Verbindungen auf die Blutglucosekonzentration nüchterner, stoffwechselgesunder Ratten wiedergegeben. Spalte A gibt jeweils die maximale Senkung der Blutglucosekonzentration nüchterner Ratten (in % bezogen auf die Kontrollgruppe) an, die im Laufe von 6 Stunden nach einmaliger oraler Applikation von 0,6 mmöl Substanz/kg Körpergewicht be-, obachtet wird. In der Spalte B werden Daten zur akuten Toxizität (LD50; Maus p.o.) wiedergegeben.
1. Blutglucosebestimmung nach einmaliger oraler Applikation
Zur Verwendung kommen junge männliche Sprague-Dawley-Ratten (Körpergewicht 150-200 g). Die Haltung der Tiere (6 Tiere pro Dosis) erfolgt in Makrolon-Käfigen mit bis zu 4 Tieren pro Käfig (Raumtemperatur 23 °C, rel. Luftfeuchtigkeit 55 %, fester Tag/Nacht-Rythmus (12/12=h) Standarddiät Altromin®). Den Ratten wird 18 Stunden vor der 1. Blutentnahme das Futter entzogen. Wasseraufnahme erfolgt ad libitum. Blutentnahmen erfolgen unmittelbar vor und 2, 4 und 6 Stunden nach Substanzgabe durch Punktion aus dem retroorbitalen Plexus. Nach Enteiweißung mit Perchlorsäure wird die Blutglucosebestimmung mittels der bei Banauch et.al. [J.Clin.Chem.Clin.Biochem. 13, 101(1975)] beschriebener Glucose-Dehydrogenase-Methode mit Hilfe von kommerziellen Reagentien durchgeführt. Zum Vergleich wird jeweils eine mit reinem Lösungsmittel behandelte Kontrollgruppe mituntersucht (10 Tiere pro Kontrollgruppe).

in vivo = conditions: mouse, po, read-out: Akute Toxizität Maus p.o. LD50
Excerpt: as §1
2. Bestimmung der Toxizität .
Die Toxizitätsuntersuchungen werden an weiblichen NMRI-Mäusen (Körpergewicht 22-26 g) durchgeführt. Die Tiere (5 Tiere pro Dosis) erhalten 18 Stunden vor der Behandlung das Futter (Altromin®) auf 50 g/50 Tiere reduziert und Wasser ad libitum. Verschiedene Dosen der Substanzen werden oral mittels Schlundsonde verabreicht (Volumen 10 ml/kg). Die Beobachtungsdauer beträgt 7 Tage.

CCCCNC(=N)NC(=N)N [compound 1, Buformin, reference compound]
Senkung der Blut-glucosekonzentration (in %) in vivo [1]: 8%

[H]/N=C(/N)N/C(=N/[H])NCCc1ccccc1 [compound 2, Phenformin, reference compound]
Senkung der Blut-glucosekonzentration (in %) in vivo [1]: 6%

CCOC(=O)C1(CCCC(C)Cc2ccccc2)CO1 (stereo not shown) [compound 3, 2-(4-Methyl-5-phenylpentyl)-oxiran-2-carbonsäureethylester]
Senkung der Blut-glucosekonzentration (in %) in vivo [1]: 45%
LD50 (in vivo): > 1000 mg/kg

CCOC(=O)C1(CC(CC)CCCc2ccccc2)CO1 (stereo not shown) [compound 4, 2-(2-Ethyl-5-phenylpentyl)-oxiran-2-carbonsäureethylester]
Senkung der Blut-glucosekonzentration (in %) in vivo [1]: 25%

CCOC(=O)C1(CCCC(C)Cc2ccc(Cl)cc2)CO1 (stereo not shown) [compound 5, 2-[5-(4-Chlorphenyl)-4-methylpentyl]-oxiran-2-carbonsäure-ethylester]
Senkung der Blut-glucosekonzentration (in %) in vivo [1]: 70%
LD50 (in vivo): ~500 mg/kg

CCOC(=O)C1(CCCC(C)CCCc2ccccc2)CO1 (stereo not shown) [compound 6, 2-(4-Methyl-7-phenylheptyl)-oxiran-2-carbonsäureethylester]
Senkung der Blut-glucosekonzentration (in %) in vivo [1]: 35%
LD50 (in vivo): > 500 mg/kg

CCOC(=O)C1(CCCCC(C)c2ccccc2)CO1 (stereo not shown) [compound 7, 2-(5-Methyl-5-phenylpentyl)-oxiran-2-carbonsäureethylester]
Senkung der Blut-glucosekonzentration (in %) in vivo [1]: 22%
